For 34 molecules, GI50 and TGI results are on record in PubChem BioAssay (NCI).

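1) Cells in 96-well plates. 2) Compound, 48 h, 5 concentrations. 3) Linear interpolation between surrounding doses. 4) Unreached endpoint = highest concentration. GI50: concentration for 50% inhibition of growth. Definition used: TGI = concentration required for complete inhibition of growth.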 Where a SMILES comes first, the peptide text is derived from it. [ ]: non-standard residue; d: D form. pGlu = O=C1CC[CH](C(=O)O)N1

The experiment deals with MDA-MB-468 breast. The experiment can be described thus: NCI tumour cell line growth inhibition, 48 h.
Turning to `CN(CCO)CC[C@H](CSc1ccccc1)Nc1ccc(S(=O)(=O)NC(=O)c2ccc(N3CCC([C@@H](O)c4ccccc4-c4ccc(Cl)cc4)CC3)cc2)cc1S(=O)(=O)C(F)(F)F`, the GI50 was 1870 nM and the TGI was determined as 5.19 µM.

In the case of `COc1ccc2sc(NC(=O)CCCCCCNC(=O)C(O)(O)C(F)(F)F)nc2c1`, the GI50 was 665 nM and the TGI stood at 1.81 µM.

In the case of `COc1ncnc2c(-c3ccccc3)cn(COCc3ccccc3)c12`, the GI50 was 1740 nM and the TGI was 6.82 µM.

For `CCCCCCCCNc1cc2c3c(c1)CCCN3CCC2`, the GI50 is 1540 nM and the TGI was 5.31 µM.

Turning to `CCN(Cc1ccc(Cl)cc1)c1ccc(CO)c(Cl)c1`, the GI50 was 20 nM and the TGI was 0.0626 µM.

In the case of `Cc1cccc(/C=C/c2c(C(=O)/C=C/c3ccccc3)c(C)nc3ccccc23)c1`, the GI50 was 1900 nM and the TGI was 3.79 µM.

In the case of `O=C(Oc1cccc(F)c1OC(=O)c1cccc(O)c1)c1cccc(O)c1`, the GI50 is 18200 nM and the TGI is 55.2 µM.

For the molecule `O=C(c1ccccc1)c1ccccc1-c1ccccc1`, the GI50 is 768 nM and the TGI worked out at 3.7 µM.

On to `COc1cccc(N2CCN(CC(=O)N3CCN(c4nnc(-c5ccc(Cl)cc5)c(-c5ccc(Cl)cc5)n4)CC3)CC2)c1`, for which the GI50 was 22500 nM and the TGI is > 100 µM.

Turning to `O=c1[nH]nnc2c1ncn2C1OC(CO)C(O)C1O` (stereo not drawn), the GI50 is 3360 nM and the TGI was > 100 µM.

Take `O=c1[nH]c(=O)c2cn[nH]c2[nH]1`: the GI50 is > 100000 nM and the TGI was > 100 µM.

For `CCN(Cc1cc(Nc2nc(C)cn3c(-c4cn[nH]c4)cnc23)sn1)C(C)(C)CO`, the GI50 was < 12.3 nM and the TGI is 0.233 µM.

In the case of `O=C(Nc1cccc(-c2nc(-c3ccc(NC(=O)c4cccnc4)cc3Cl)no2)c1)Nc1ccc(NC(=O)C2CC2)c(C(F)(F)F)c1`, the GI50 is 193 nM and the TGI stood at 0.691 µM.

Take `COc1cc(/C=C\c2cc(OC)c(OC)c(OC)c2)cc(NC(=O)/C=C/c2cc(OC)c(OC)c(OC)c2)c1OC`: the GI50 was 1990 nM and the TGI was > 100 µM.

Take `C[C@]12CC[C@@H]3c4ccc(OC(=O)N(CCCl)CCCl)cc4CC[C@H]3[C@@H]1CC[C@@H]2O`: the GI50 is 1690 nM and the TGI was determined as 4.21 µM.

With `C=C1C(=O)O[C@H]2[C@H]1CC/C(CNC(=O)/C=C/c1cc(OC)c(OC)c(OC)c1)=C\CC[C@@]1(C)O[C@@H]21`, the GI50 was 220 nM and the TGI worked out at 1.06 µM.

`CCOC(=O)c1c(C)nc2c(c1N)CC(=O)N2Cc1ccc(OC)cc1`: the GI50 was 27300 nM and the TGI is > 100 µM.

As for `COc1ccc(C(=S)N2CCN(c3cccc(C)c3)CC2)cc1OC`, the GI50 was 2650 nM and the TGI is > 100 µM.

Consider `C=C1C(=O)O[C@H]2[C@H]1CC/C(COC(=O)CSCSCC(=O)OC/C1=C/CC[C@@]3(C)O[C@H]3[C@H]3OC(=O)C(=C)[C@@H]3CC1)=C\CC[C@@]1(C)O[C@@H]21`, for which the GI50 is 1070 nM and the TGI came out at 2.7 µM.

As to `C=CCN=c1sc2c(n1NC(=O)c1cc3ccc1CCc1ccc(cc1)CC3)C(=O)c1ccccc1C2=O`, the GI50 is 2280 nM and the TGI worked out at 5.72 µM.

Turning to `O=C(Nc1cc(Cl)cc(Cl)c1)Nc1nc2ccc([N+](=O)[O-])cc2s1`, the GI50 is 1000 nM and the TGI amounted to 4.22 µM.

On to `CCOC(=O)Nc1ccc2c(c1)/C(=N\NC(N)=S)c1ccccc1-2`, for which the GI50 was 3460 nM and the TGI came out at 25 µM.

Regarding `Clc1nc(Cl)c2ncn(CC3(Cn4cnc5c(Cl)nc(Cl)nc54)COC3)c2n1`, the GI50 is 192 nM and the TGI amounted to 0.408 µM.

Turning to `CCN1C(=O)N(CC)C2C1NN=c1s/c(=C\c3cccc(F)c3)c(=O)n12` (stereo not drawn), the GI50 is 183 nM and the TGI is > 100 µM.

`O=C(CCCCCCNC(=O)c1cnc(N(c2ccccc2)c2ccccc2)nc1)NO`: the GI50 is 1220 nM and the TGI amounted to 10.2 µM.

For the molecule `Oc1c(-c2nnc(-c3ccccc3Cl)o2)sc2nnc(-c3ccccc3)c(-c3ccccc3)c12`, the GI50 is 5110 nM and the TGI was 27.8 µM.

For `Fc1ccc(C2CC(c3cccc(Nc4ccncc4)c3)=NN2c2ccc(Cl)cc2)cc1` (stereo not drawn), the GI50 is 1420 nM and the TGI worked out at 2.93 µM.

With `ClCc1cccc2c(CCl)cccc12`, the GI50 is 1120 nM and the TGI turned out to be 3.05 µM.

With `C[C@H](NC(=O)[C@@H](C)N)[C@H](Oc1ccc2c(cnn2-c2ccc(F)cc2)c1)c1ccc2c(c1)OCCO2`, the GI50 is 2120 nM and the TGI was found to be 4.05 µM.

Take `IP(CCCSc1n(Cc2ccc3ccccc3c2)c(-c2ccccc2)c(-c2ccccc2)[n+]1Cc1ccc2ccccc2c1)(c1ccccc1)(c1ccccc1)c1ccccc1`: the GI50 was 2250 nM and the TGI is 5.97 µM.

In the case of `C/C=C(\C)C(=O)NC1=CC[C@@]2(C)C(=CCC3C2CC[C@@]2(C)C3CC[C@@H]2C(C)N(C)C)C1=O` (stereo partly drawn), the GI50 was 2000 nM and the TGI was found to be 9.56 µM.

For `CCNC(=O)C1CCCN1C(=O)C(CCCN=C(N)N)NC(=O)C(CC(C)C)NC(=O)C(CC(C)C)NC(=O)C(Cc1ccc(O)cc1)NC(=O)C(CO)NC(=O)C(Cc1c[nH]c2ccccc12)NC(=O)C(Cc1cnc[nH]1)NC(=O)C1CCC(=O)N1` (stereo not drawn) ([pGlu]HWSYLLRP-NHEt; configuration not given here), the GI50 is > 100000 nM and the TGI is > 100 µM.

As for `COc1ccc(-c2nn(-c3cccc(Cl)c3)cc2-c2cc(-c3cccs3)[nH]c(=S)n2)cc1`, the GI50 was 2570 nM and the TGI was 9.91 µM.

Consider `N#Cc1ccc(OCc2nc(N)nc(N)c2-c2ccc(Cl)c(Cl)c2)cc1`, for which the GI50 was 1530 nM and the TGI came to 53.9 µM.
